Experimental data from patent publication US20240398844A1, “PHENYLCOUMARINS FOR TREATING INFLAMMATION” (Ohio State Innovation Foundation, priority 2021, published 2024).
pIC50: −log10 of the molar value.

What was measured:
HbA1C = experiment: Diabetic zebrafish Western blot, HbA1C expression; format: in vivo
Experimental: (§1) Alloxan-induced diabetic zebrafish were treated with compounds for immunoblot to validate the newly developed animal model, determine the antidiabetic potential of natural product leads, evaluate glucose metabolism, and discover possible mechanisms of action.
(§2) At 72 hpf, naturally dechorionated zebrafish were sorted into a 24-well microplate with 10 fish per well. Type 2 diabetes was induced with the diabetogenic agent alloxan at a dose of 0.5 mg/mL in system water for 3 hours. […] After 3 hours of treatment with natural product samples, 10 mg/mL D-glucose was administered in system water for 30 minutes, followed by 1 hour in fresh system water to metabolize the glucose and natural product leads. Upon completion of the 4-phase treatment cycle, zebrafish treatment groups were snap frozen into individual microcentrifuge tubes on dry ice, stored overnight at −80° C., thawed, homogenized with 2 μL PBS per animal, and centrifuged at 4° C. for 1 hour at 17,000 rpm. Protein content of homogenate supernatant was determined using the Pierce BCA Protein Assay kit (Pierce Biotechnology) and bovine serum albumin (BSA) standard curve. Absorbance of protein solutions from zebrafish homogenates and serial dilutions of the BSA standard were measured at 544 nm, using a FLUOstar Optima plate reader (BMG Labtechnologies GmbH, Inc.). Homogenates were analyzed by Western blot. Equal amounts of protein (20 μg) were combined with 4× lithium dodecyl sulphate (LDS) loading buffer (NuPAGE, Life Technologies, Carlsbad, CA, USA), brought to volume (15 μL) with PBS, and heated to 95° C. for 5 minutes. Proteins were resolved using NuPAGE Bis-Tris 4-12% gradient sodium dodecyl sulfate polyacrylamide gel electrophoresis (SDS-PAGE) gels together with SeeBlue Plus2 Pre-Stained Standard Ladder (Life Technologies).
(§3) Electrophoresis was performed using NuPAGE MES SDS Running Buffer and XCell SureLock Mini-Cell Electrophoresis System (Life Technologies). Separated proteins were transferred from the gel to a polyvinylidene fluoride (PVDF) membrane using tris buffered saline with Tween-20 (TBST) buffer. The blots were blocked in 3% BSA in TBST and subsequently probed using primary antibodies (1:1000 in 1% BSA in TBST) against each target overnight (Table 1). The secondary, horseradish peroxidase (HRP) conjugated antibodies (1:2000) were obtained from Santa Cruz Biotechnology Inc., (Santa Cruz, CA, USA). Conjugated antibodies were detected using SuperSignal West Femto chemiluminescent substrate from Pierce Biotechnology. Western blots were visualized, and images captured using a luminometer and LumiAnalyst 3.0 software (Boehringer-Mannheim, Mannheim, Germany). Band density was quantified for proteins of interest using ImageJ Gel Analysis.
(§4) In the case of duplicate blots, the band density results were expressed in bar graphs as the mean±standard error of the mean (SEM) of two independent experiments. Due to the labor- and time-intensive aspect of Western blot analysis with multiple target proteins, a maximum of two independent immunoblot experiments were performed per compared sample set. […] Additionally, treatment groups were also evaluated versus the diabetic, untreated control group for significance by Student's f-test and indicated in the bar graphs with p values represented by *p<0.05, **p<0.01, and ***p<0.001. […]

PPAR-γ = molecular target: T1, PPAR-γ (Homo sapiens, UniProt P37231); experiment: PPAR-γ ELISA Assay in HeLa cells (in vitro PPAR-γ assay); format: cell-based; conditions: 50 μg/mL; for PPAR-γ activity in the in vitro assay (in words): versus positive control rosiglitazone
T1 construct: endogenous in cells; host or cells: HeLa
T1 sequence (P37231 1-505): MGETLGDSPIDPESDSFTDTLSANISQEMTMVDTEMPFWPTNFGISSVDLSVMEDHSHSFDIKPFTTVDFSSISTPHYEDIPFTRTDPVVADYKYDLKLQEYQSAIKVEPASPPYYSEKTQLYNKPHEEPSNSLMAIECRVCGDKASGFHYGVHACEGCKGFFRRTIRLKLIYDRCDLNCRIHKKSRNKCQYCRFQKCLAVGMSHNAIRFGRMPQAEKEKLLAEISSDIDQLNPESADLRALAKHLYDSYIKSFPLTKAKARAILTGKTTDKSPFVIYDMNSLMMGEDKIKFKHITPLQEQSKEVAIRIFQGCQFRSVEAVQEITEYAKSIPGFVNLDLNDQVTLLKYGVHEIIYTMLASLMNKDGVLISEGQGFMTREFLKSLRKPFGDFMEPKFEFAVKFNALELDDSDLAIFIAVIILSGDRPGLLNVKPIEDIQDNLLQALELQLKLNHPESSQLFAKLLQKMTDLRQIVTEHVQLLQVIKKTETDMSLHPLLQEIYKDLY
Experimental: In addition to the Western blot, the diverse library was also screened in the in vitro PPAR-γ assay. […] The compounds were tested at 50 μg/mL according to the protocol detailed in section 3.2.3.

NFκB p65 = experiment: Diabetic zebrafish Western blot, NFκB expression; format: in vivo; conditions: for NFκB p65 expression (Western blot band density): diabetic zebrafish, 10, 5, and 1 μM (rosiglitazone 10 μM), FIG. 10
Experimental: as §1, §2, §3, §4

NFκB = NFκB in vitro assay, NFκB translocation to the nucleus in HeLa cells; format: cell-based; conditions: for pIC50: inhibiting NFκB translocation to the nucleus, tested at 50, 5, 0.5, and 0.05 μM
Experimental: Following derivatization and purification, compound 40 was tested in the NFκB and PPAR-Y in vitro assays, as well as the diabetic zebrafish Western blot. The three 4-phenylcoumarin glycoside natural products from the diverse library (22, 23, and 24) and the isopropyl ether derivative (40), were evaluated for PPAR-γ activity at 50 μg/mL in HeLa cells according to a PPAR-γ ELISA Assay (Table 4). […] NFκB Assay (Table 4).
As an excellent lead, 24 was derivatized to yield 40, and both compounds were evaluated in the NFκB and PPAR-γ in vitro assays (Table 4). […] To investigate 24 and 40 in a live, metabolizing system with appropriate hormone responses, the compounds were tested (at 10, 5, and 1 μM) in the larval diabetic zebrafish assay.

[1] = diabetic zebrafish, 10, 5, and 1 μM (rosiglitazone 10 μM), duplicate blots, FIG. 7

Row | activation at 50 µg/mL (PPAR-γ; Table 4) | Compound | HbA1C expression (Western blot band density) (HbA1C; [1]) | PPAR-γ activity in the in vitro assay (in words) (PPAR-γ) | NFκB p65 expression (Western blot band density) (NFκB p65) | times less effective at inhibiting NFκB translocation than parent compound 24 (NFκB) | pIC50 (NFκB) | HbA1C expression (Western blot band density) (HbA1C; diabetic zebrafish, 10 μM, library screen, FIG. 2 / FIG. 11) | % Activation PPAR-γ (PPAR-γ; Table 2) | % Activation PPAR-γ (PPAR-γ; Table 4) | NFκB expression (Western blot) (NFκB p65; diabetic zebrafish, 10 μM, FIG. 5)
1 | 0% | COc1cc(O[C@@H]2OCC(O)(CO[C@@H]3OC(CO)[C@@H](O)C(O)C3O)C2O)c2c(-c3ccc(OC(C)C)c(O)c3)cc(=O)oc2c1 (single isomer, unassigned) [Compound 40] | lacking a dose-dependent response | loss of all activity | significantly inhibit NFκB expression versus the untreated, diabetic control | 2.6 times | 4.99 |  |  |  | 
2 |  | COc1cc(O[C@@H]2O[C@H](CO[C@@H]3OCC(O)(CO)[C@H]3O)[C@@H](O)[C@H](O)[C@H]2O)c2c(-c3ccc(O)c(O)c3)cc(=O)oc2c1 (stereo partly drawn) [Compound 24, 5-O-[β-D-apiofuranosyl-(1→6)-β-D-glucopyranosyl]-7-methoxy-3′,4′-dihydroxy-4-phenylcoumarin] | reduced glycated hemoglobin levels in comparison to rosiglitazone | top performers | opposite dose-dependent effect |  | 5.40 | most effective in reducing glycated hemoglobin | 101% | 101% | excellent inhibition of NFκB expression
